Tests used:
Assay type in all cases: cell-based, human
[1] = system: MCC; experiment: Western blot of MCC in HCT-116 cells; conditions: HCT-116, AS 0.5 nM, 48 hours, vs untreated or sense, FIGS. 9A, 9B
Protocol: To investigate whether FMRP regulates MCC, a protein known to interact with the E-cadherin/β-catenin complex, HCT-116 cells were left untreated (U) or transfected with sense FMRP oligonucleotide (S) (final concentration 0.5 nM) or antisense FMRP oligonucleotide (AS) (final concentration 0.5 nM) for 48 hours.

[2] = system: DLD-1 cell lines; experiment: Cell cycle distribution by bromodeoxyuridine/PI flow cytometry; conditions: DLD-1 48 hours (FIGS. 4D, 4E); HCT-116 36 hours (FIGS. 4F, 4G); before induction of cell death
Protocol: Cells were transfected with either FMRP antisense oligonucleotide (AS)(final concentration 0.5 nM and 100 nM) or FMRP sense oligonucleotide (S)(final concentration 100 nM). After 24 hours (FIGS. 3E, 3F, 3J and 3K) or 48 hours (FIG. 3H), cells were collected, washed two times in Annexin V (AV) buffer, stained with FITC-AnnexinV (final dilution 1:100; Immunotools, Friesoythe, Germany) according to the manufacturer's instructions, and incubated with […] of propidium iodide (PI) for 30 min at 4° C. Cells were also transfected with either FMRP sense oligonucleotide or FMRP AS oligonucleotide (final concentration 100 nM) for 36 hours and analyzed for activated caspase 3 and caspase 8. As positive and negative controls, cells were treated, respectively, with staurosporin (final concentration 1 μM, Sigma-Aldrich Milan, Italy) or Q-VD-OPh (a pan-caspase inhibitor; final concentration 1 μM) (R&D Systems, Inc, Minneapolis, Minn.). Additionally, 36 hours (FIGS. 4F and 4G) or 48 hours post-transfection (FIGS. 4D and 4E), cells were pulsed with […] bromodeoxyuridine for 60 minutes, fixed in 70% cold ethanol, and stored at −20° C. for at least 3 hours. […] Fluorescence was measured using Gallios Flow Cytometer (Beckman Coulter, Life Sciences, Pasadena, Calif., USA) and analyzed using Kaluza software (Beckman Coulter). […]

[3] = system: HCT-116 cells; experiment: Cell migration (pseudo-wound closure) with Ibidi culture insert; conditions: HCT-116, AS 0.5 nM, T24 and T48, vs untreated or sense, FIGS. 8A, 8B
Protocol: To investigate the role of FMRP in tumor cell migration and invasion, HCT-116 cells were seeded in each side of an Ibidi® culture insert and grown to confluence then left untreated (U) or transfected with sense FMRP oligonucleotide (S) (final concentration 0.5 nM) or antisense FMRP oligonucleotide (AS) (final concentration 0.5 nM). Additionally, HCT-116 cells were seeded in Transwell® inserts precoated with Matrigel®, and either left untreated (U) or transfected with sense oligonucleotide (S) (final concentration 100 nM) or antisense FMRP oligonucleotide (AS) (final concentration 0.5 nM) for 48 hours.
To determine whether MCC regulation of the E-cadherin/β-catenin complex is also required for the observed inhibition of colorectal cell line migration and invasion (e.g., FIGS. 8A and 8B), HCT-116 cells were seeded in each side of an Ibidi® culture insert and grown to confluence then left untreated (U) or transfected with sense oligonucleotide (S) (final concentration 0.5 nM) or antisense oligonucleotide (AS) (final concentration 0.5 nM) and/or siRNA Ctrl or siRNA MCC.

[4] = system: FMRP; experiment: FMRP knockdown: Western blot of FMRP after transfection with FMRP antisense or sense oligonucleotide; conditions: 48 hours, AS 0.5-100 nM, S 100 nM
Protocol: Total proteins were extracted from mouse colonic tissues, and lysed on ice in buffer containing 10 mM HEPES [pH 7.9], 10 mM KCl, 0.1 mM EthyleneDiamineTetraacetic Acid (EDTA), 0.2 mM Ethylene Glycol-bis (β-aminoethyl ether)-N,N,N′,N′-Tetraacetic Acid (EGTA) and 0.5% Nonidet P40 supplemented with 1 mM dithiothreitol (DTT), […], […], 1 mM phenylmethylsulfonyl fluoride (PMSF), 1 mM Na3VO4, and 1 mM NaF. Lysates were clarified by centrifugation and separated on sodium dodecyl sulphate (SDS)-polyacrylamide gel electrophoresis. Blots were incubated with antibodies against: FMRP (Cell Signaling, Danvers, Mass.), followed by a secondary antibody conjugated to horseradish peroxidase (Dako, Milan, Italy). After analysis, each blot was stripped and incubated with a mouse-anti-human monoclonal β-actin antibody (Sigma-Aldrich) to ascertain equivalent loading of the lanes.
Human CRC cell lines, DLD-1 and HCT-116, were obtained from the American Type Culture Collection (ATCC, Manassas, Va.) and cultured in RPMI 1640 (DLD-1) and McCoy's 5A (HCT-116) medium, respectively. All media were supplemented with 10% fetal bovine serum, 1% penicillin/streptomycin (both from Lonza, Verviers, Belgium). The normal human colon epithelial cell line (HCEC-1ct) was obtained from EVERCYTE GmbH (Vienna, Austria) and cultured in ColoUp® medium (EVERCYTE GmbH). Cells were maintained in a 37° C., 5% CO2, fully humidified incubator. Cell line lysates were prepared and analyzed by SDS-polyacrylamide gel electrophoresis/immunoblot using methods as previously described in Example 2. For immunofluorescent staining, cell lines were fixed with 3.7% formaldehyde for 10 minutes at 4° C., permeabilized with 0.1% Triton for 10 minutes at room temperature and blocked (1% bovine serum albumin, Tween 0.1%, glycine 2%) for 1 hour at room temperature. Fixed and blocked cells were incubated with anti-FMRP monoclonal antibody (1:500, Cell Signaling, Danvers, Mass.) overnight at 4° C. After washing with PBS, secondary antibody goat anti-rabbit Alexa 488 (1:2000, A11008; Invitrogen) was applied for 1 hour at room temperature. Slides were washed with PBS, mounted using Prolong Gold® anti-fade reagent with 4′,6-diamidino-2-phenylindole (P36931; Invitrogen) and analyzed by a Leica DMI4000 B microscope with Leica application suite software (V4.6.2).
Phosphorothioate single-stranded antisense oligonucleotides complementary to human FMRP [5′-[…]-3′ (SEQ ID NO: 6)] and single-stranded sense oligonucleotides [5′-[…]-3′ (SEQ ID NO: 15)] were synthesized. CRC cell lines and HCEC-1ct cells were transfected with either FMRP antisense (AS)(final concentration 0.5-100 nM) or FMRP sense oligonucleotide (S) (final concentration100 nM) for 24 and 48 hours, using Opti-MEM medium and lipofectamine 3000 reagent (Thermo Fisher Scientific, Waltham, Mass., USA) according to the manufacturer's instructions.

5′-TCCACCACCAGCTCCTCCAT-3′ (all phosphorothioate, sugars by position and methylation of C not given here) [FMRP antisense oligonucleotide, Phosphorothioate single-stranded antisense oligonucleotides complementary to human FMRP]
MCC protein expression [1]: significantly increased expression of MCC | relative percentage of cells in G2/M, S, or G0/G1 cell cycle phases [2]: did not affect | percentage of cell-covered area (pseudo-wound) [3]: significantly reduced the percentage of cells covering a pseudo-“wound” | FMRP expression ([4]; DLD-1 cells, FIG. 3D): significantly inhibited FMRP expression | FMRP expression ([4]; HCEC-1ct cells, FIG. 3I): significantly inhibited FMRP expression | FMRP expression ([4]; HCT-116 cells, FIG. 3G): significantly inhibited FMRP expression

— patent publication US20220145303A1, “FRAGILE X MENTAL RETARDATION PROTEIN INTERFERING OLIGONUCLEOTIDES AND METHODS OF USING SAME” (Nogra Pharma Limited, priority 2019, published 2022)
